Usually Ki stands for a measure of affinity in units of concentration, obtained from inhibition or displacement.

Test [1] concerns the target GABA channels expressing the α1 subunit (GABRA1-GABRB3-GABRG2) in HEK cells (Homo sapiens (Human), UniProt P14867+P18507). Briefly: QPatch whole-cell patch-clamp electrophysiology, enhancement of GABA current (α1). It is filed as cell-based. The note with it: −60 mV, approximately EC10 GABA. How it is done:
(§1) Cell suspension containing HEK cells expressing GABRA2-GABRB2-GABRG2 was placed on the QPatch instrument in serum-free medium into the instrument's cell stirrer. […] All recordings were made at room temperature (22-24° C.).
(§2) Current records were acquired at 1 KHz and filtered at 0.3 KHz using the Bessel filter. Series resistance compensation was set to 80% in the QPatch software.
(§3) All compounds were dissolved in dimethyl sulfoxide to make 30 mM or 10 mM stock solutions, which were then diluted to 1000 times the desired final concentration in dimethyl sulfoxide. These were diluted into extracellular solution to attain the final concentrations desired. […] This concentration of dimethyl sulfoxide was present in all samples.
(§4) Currents were recorded at −60 mV, using an approximately EC10 concentration of gamma-aminobutyric acid (GABA).
(§5) Compound effect (% enhancement of gamma-aminobutyric acid current) was calculated using the following formula: [((peak modulator current amplitude−leak)−(GABA current amplitude−leak))/(GABA current amplitude−leak)]*100, where ‘leak’ is leak current at −60 mV, ‘peak modulator current amplitude’ is the current elicited by co-application of gamma-aminobutyric acid and test compound, and ‘GABA current amplitude’ is the current elicited by application of gamma-aminobutyric acid alone.
The ability of the compounds of the formula (I) to modulate the GABA channels expressing the α1 subunit (or GABRA1) can also be measured using an assay analogous to that described above but replacing the GABRA2-GABRB2-GABRG2 gene construct with the GABRA1-GABRB3-GABRG2 gene construct. All other conditions remain the same including the same cell line and conditions for cell growth.

In test [2] the target is human recombinant GABA A receptor containing the alpha2, beta2, and gamma3 subunits (Homo sapiens, UniProt P47869+Q99928). Briefly: Radioligand competition binding assay with [3H]Ro-15-1788 (Flumazenil).
Protocol: Membranes were prepared from HEK cells expressing hGABA A alpha2beta2-gamma3 receptor, and validated to ascertain protein concentration, receptor expression and to determine the Kd of the flumazenil as well as the Ki of a standard set of compounds before being used to test new compounds.
100 ul of radioligand and 100 ul of membrane in 50 mM Tris-HCl and 0.05% F127 with 1 ul of test compound was incubated for 2 hours to allow the reaction to achieve equilibrium, and then harvested onto filter plates, dried and counted on a TopCount NXT. The data was analysed, and the Ki values were presented as the geometric mean of at least two replicates.
The target in test [3] is GABRA2-GABRB2-GABRG2 chloride currents in HEK cells (Homo sapiens (Human), UniProt P18507+P47869). The test is described as follows: QPatch whole-cell patch-clamp electrophysiology, enhancement of GABA current (α2). The class given is cell-based. The following applies: −60 mV, approximately EC10 GABA. On the procedure: Human Embryonic Kidney (HEK) cells were transfected with a GABRA2-GABRB2-GABRG2 construct using standard techniques.
For QPatch electrophysiology testing, cells were harvested from flasks by enzymatic dissociation and resuspended in serum-free medium. Cells were typically used for electrophysiological experiments within 24 to 72 hours after splitting.
as §1, §2, §3, §4, §5

[4] abbreviates: read-out: GABA-α2 Ki, hGABA A alpha2beta2gamma3 membranes from HEK cells, geometric mean of at least two replicates.

Structures can show the parent of a compound that is named as a salt. Where two headings read alike, the source gives them in different places.

Sequence of GABRA2-GABRB2-GABRG2 chloride currents in HEK cells (P47869 29-451): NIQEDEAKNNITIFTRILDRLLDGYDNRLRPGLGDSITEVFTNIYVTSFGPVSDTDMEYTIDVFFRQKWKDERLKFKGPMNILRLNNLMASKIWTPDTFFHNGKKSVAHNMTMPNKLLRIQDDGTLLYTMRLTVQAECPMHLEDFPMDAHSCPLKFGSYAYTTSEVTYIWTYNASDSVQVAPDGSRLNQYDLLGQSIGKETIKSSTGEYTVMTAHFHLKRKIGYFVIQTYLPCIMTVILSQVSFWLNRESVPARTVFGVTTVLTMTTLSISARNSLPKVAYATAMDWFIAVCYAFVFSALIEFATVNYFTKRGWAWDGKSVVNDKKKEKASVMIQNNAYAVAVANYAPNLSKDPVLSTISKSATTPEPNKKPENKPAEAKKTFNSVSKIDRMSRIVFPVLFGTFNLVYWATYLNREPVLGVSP
Sequence of GABRA2-GABRB2-GABRG2 chloride currents in HEK cells (P47870 26-512 partner): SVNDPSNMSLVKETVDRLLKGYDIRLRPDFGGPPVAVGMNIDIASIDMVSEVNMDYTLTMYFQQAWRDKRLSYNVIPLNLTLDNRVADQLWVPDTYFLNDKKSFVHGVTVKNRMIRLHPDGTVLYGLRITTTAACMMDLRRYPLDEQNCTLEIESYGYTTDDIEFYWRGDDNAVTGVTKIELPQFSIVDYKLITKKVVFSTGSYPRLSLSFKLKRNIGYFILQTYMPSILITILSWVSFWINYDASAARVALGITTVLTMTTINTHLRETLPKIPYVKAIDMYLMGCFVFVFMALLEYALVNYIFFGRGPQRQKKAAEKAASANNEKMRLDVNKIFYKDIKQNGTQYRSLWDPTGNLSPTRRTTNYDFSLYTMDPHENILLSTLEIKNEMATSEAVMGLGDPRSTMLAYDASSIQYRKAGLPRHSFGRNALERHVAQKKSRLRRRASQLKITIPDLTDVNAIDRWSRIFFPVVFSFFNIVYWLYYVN
Sequence of GABRA2-GABRB2-GABRG2 chloride currents in HEK cells (P18507 40-475): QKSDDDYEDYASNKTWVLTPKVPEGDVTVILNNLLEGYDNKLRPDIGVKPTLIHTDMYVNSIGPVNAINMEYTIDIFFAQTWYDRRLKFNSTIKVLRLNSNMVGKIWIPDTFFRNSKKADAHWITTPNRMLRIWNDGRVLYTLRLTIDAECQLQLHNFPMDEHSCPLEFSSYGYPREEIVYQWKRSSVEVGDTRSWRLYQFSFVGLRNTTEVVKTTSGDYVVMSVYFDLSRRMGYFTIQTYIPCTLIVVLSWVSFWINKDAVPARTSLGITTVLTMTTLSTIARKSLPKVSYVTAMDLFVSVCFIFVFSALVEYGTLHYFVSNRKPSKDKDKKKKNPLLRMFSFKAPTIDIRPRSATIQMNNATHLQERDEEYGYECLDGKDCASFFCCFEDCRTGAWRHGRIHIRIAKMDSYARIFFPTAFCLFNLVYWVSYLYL
Sequence of GABA channels expressing the α1 subunit (GABRA1-GABRB3-GABRG2) in HEK cells (P14867 28-456): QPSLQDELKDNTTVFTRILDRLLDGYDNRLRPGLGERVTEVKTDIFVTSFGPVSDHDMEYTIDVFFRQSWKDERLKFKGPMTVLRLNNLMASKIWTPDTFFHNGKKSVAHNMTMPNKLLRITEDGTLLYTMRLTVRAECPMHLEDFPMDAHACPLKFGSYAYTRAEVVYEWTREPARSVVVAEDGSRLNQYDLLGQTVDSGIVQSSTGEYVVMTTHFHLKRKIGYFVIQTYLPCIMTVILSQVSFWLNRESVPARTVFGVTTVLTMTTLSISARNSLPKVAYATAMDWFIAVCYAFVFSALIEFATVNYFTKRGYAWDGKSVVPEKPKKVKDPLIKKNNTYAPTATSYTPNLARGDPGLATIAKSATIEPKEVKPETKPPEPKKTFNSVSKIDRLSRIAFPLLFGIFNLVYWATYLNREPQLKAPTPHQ
Sequence of GABA channels expressing the α1 subunit (GABRA1-GABRB3-GABRG2) in HEK cells (P28472 26-473 partner): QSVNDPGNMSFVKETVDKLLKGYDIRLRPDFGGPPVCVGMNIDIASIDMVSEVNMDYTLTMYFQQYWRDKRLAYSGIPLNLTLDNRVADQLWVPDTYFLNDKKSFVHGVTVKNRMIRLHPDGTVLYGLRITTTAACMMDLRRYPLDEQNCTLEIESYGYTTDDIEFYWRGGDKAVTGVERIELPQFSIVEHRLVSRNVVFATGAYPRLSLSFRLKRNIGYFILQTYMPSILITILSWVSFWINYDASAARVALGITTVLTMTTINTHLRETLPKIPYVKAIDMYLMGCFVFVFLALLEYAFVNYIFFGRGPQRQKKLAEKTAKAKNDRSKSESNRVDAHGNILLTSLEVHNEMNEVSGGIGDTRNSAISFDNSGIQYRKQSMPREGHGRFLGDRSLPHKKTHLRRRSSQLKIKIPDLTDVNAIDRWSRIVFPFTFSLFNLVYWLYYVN
Sequence of GABA channels expressing the α1 subunit (GABRA1-GABRB3-GABRG2) in HEK cells (P18507 40-475): as the sequence (P18507 40-475) above

For the compound `CC(C)n1cnc2c(-c3ccc(F)c(-c4ccc5c(c4)CN(C)C5=O)c3)cnnc21` [Example 2, 5-{2-Fluoro-5-[7-(propan-2-yl)-7H-imidazo[4,5-c]pyridazin-4-yl]phenyl}-2-methyl-2,3-dihydro-1H-isoindol-1-one], the “α1 PAM (% enhancement of gamma-aminobutyric acid current)” value in test [1] came to 12%. Besides, the Ki in test [2] (setting [4]) amounted to 6.4 nM. For the same compound, the “α2 PAM (% enhancement of gamma-aminobutyric acid current)” value in test [3] came out at 106%.

Take `CCn1cnc2c(-c3ccc(F)c(-c4ccc5c(c4)C(=O)NC5)c3)cnnc21` [Example 6, 6-[5-(7-Ethyl-7H-imidazo[4,5-c]pyridazin-4-yl)-2-fluorophenyl]-2,3-dihydro-1H-isoindol-1-one]: the “α1 PAM (% enhancement of gamma-aminobutyric acid current)” value in test [1] was −61%. In test [2] (setting [4]), the Ki turned out to be 81.8 nM. In addition, the “α2 PAM (% enhancement of gamma-aminobutyric acid current)” value in test [3] was found to be 10%.

For the compound `CCn1cnc2c(-c3ccc(F)c(-c4cc(C(=O)N(C)C)ccc4F)c3)cnnc21` [Example 7, 5′-(7-Ethyl-7H-imidazo[4,5-c]pyridazin-4-yl)-2′,6-difluoro-N,N-dimethylbiphenyl-3-carboxamide], in test [2] (setting [4]), the Ki was 30.9 nM. In addition, the “α2 PAM (% enhancement of gamma-aminobutyric acid current)” value in test [3] came to 47%.

As to `CNC(=O)c1ccc(F)c(-c2cc(-c3cnnc4c3ncn4C3CC3)ccc2F)c1` [Example 8, 5′-(7-Cyclopropyl-7H-imidazo[4,5-c]pyridazin-4-yl)-2′,6-difluoro-N-methyl-biphenyl-3-carboxamide], the Ki in test [2] (setting [4]) is 29 nM.

Take `CN1Cc2cc(-c3cc(-c4cnnc5c4ncn5C4CC4)ccc3F)ccc2C1=O` [Example 10, 5-[5-(7-Cyclopropyl-7H-imidazo[4,5-c]pyridazin-4-yl)-2-fluorophenyl]-2-methyl-2,3-dihydro-1H-isoindol-1-one]: the “α1 PAM (% enhancement of gamma-aminobutyric acid current)” value in test [1] is listed as −12%. Besides, the inhibitory constant (Ki) in test [2] (setting [4]) was 54.7 nM. The “α2 PAM (% enhancement of gamma-aminobutyric acid current)” value in test [3] was 36%.

As for `CNC(=O)c1ccc(-c2cc(-c3cnnc4c3ncn4C3CC3)ccc2F)cc1` [Example 11, 5′-(7-Cyclopropyl-7H-imidazo[4,5-c]pyridazin-4-yl)-2′-fluoro-N-methylbiphenyl-4-carboxamide], the Ki in test [2] (setting [4]) is 20.5 nM. The “α2 PAM (% enhancement of gamma-aminobutyric acid current)” value in test [3] worked out at 60%.

With `CC(C)n1cnc2c(-c3ccc(F)c(-c4ccc(C(N)=O)cc4)c3)cnnc21` [Example 12, 2′-Fluoro-5′-[7-(propan-2-yl)-7H-imidazo[4,5-c]pyridazin-4-yl]biphenyl-4-carboxamide], the Ki in test [2] (setting [4]) turned out to be 10.7 nM. Also, in test [3], the “α2 PAM (% enhancement of gamma-aminobutyric acid current)” value is listed as 48%.

Turning to `CCn1cnc2c(-c3ccc(F)c(-c4ccc(C(N)=O)cc4)c3)cnnc21` [Example 14, 5′-(7-Ethyl-7H-imidazo[4,5-c]pyridazin-4-yl)-2′-fluorobiphenyl-4-carboxamide], in test [1], the “α1 PAM (% enhancement of gamma-aminobutyric acid current)” value is on record as −55%. For the same compound, in test [2] (setting [4]), the Ki is 7.5 nM. Also, in test [3], the “α2 PAM (% enhancement of gamma-aminobutyric acid current)” value is recorded as 11%.

As to `CCn1cnc2c(-c3ccc(F)c(-c4cccc(C(N)=O)c4)c3)cnnc21.O=C(O)C(F)(F)F` [Example 15, 5′-(7-Ethyl-7H-imidazo[4,5-c]pyridazin-4-yl)-2′-fluorobiphenyl-3-carboxamide trifluoroacetate salt], in test [1], the “α1 PAM (% enhancement of gamma-aminobutyric acid current)” value is reported as −34%. In test [2] (setting [4]), the Ki is 20.3 nM. For the same compound, in test [3], the “α2 PAM (% enhancement of gamma-aminobutyric acid current)” value is given as 40%.

Regarding `CCn1cnc2c(-c3ccc(F)c(-c4ccc(C(=O)N(C)C)c(F)c4)c3)cnnc21` [Example 17, 5′-(7-Ethyl-7H-imidazo[4,5-c]pyridazin-4-yl)-2′,3-difluoro-N,N-dimethylbiphenyl-4-carboxamide trifluoroacetate salt], in test [2] (setting [4]), the inhibitory constant (Ki) was determined as 52.8 nM.

Take `CCn1cnc2c(-c3ccc(F)c(-c4ccc(C(=O)NC(C)C)cc4)c3)cnnc21` [Example 18, 5′-(7-Ethyl-7H-imidazo[4,5-c]pyridazin-4-yl)-2′-fluoro-N-(propan-2-yl)biphenyl-4-carboxamide trifluoroacetate salt]: in test [2] (setting [4]), the Ki amounted to 19.3 nM.

As for `CCn1cnc2c(-c3ccc(F)c(-c4cc(F)cc(C(=O)NC)c4)c3)cnnc21.O=C(O)C(F)(F)F` [Example 19, 5′-(7-Ethyl-7H-imidazo[4,5-c]pyridazin-4-yl)-2′,5-difluoro-N-methylbiphenyl-3-carboxamide trifluoroacetate salt], the “α1 PAM (% enhancement of gamma-aminobutyric acid current)” value in test [1] was 14%. The Ki in test [2] (setting [4]) was found to be 51 nM. In test [3], the “α2 PAM (% enhancement of gamma-aminobutyric acid current)” value turned out to be 66%.

Turning to `CCn1cnc2c(-c3cccc(-c4ccc(C(=O)N(C)C)cc4)c3)cnnc21` [Example 20, 5′-(7-Ethyl-7H-imidazo[4,5-c]pyridazin-4-yl)-N,N-dimethyl-biphenyl-4-carboxamide trifluoroacetate salt], in test [2] (setting [4]), the Ki turned out to be 224 nM.

For the compound `CCn1cnc2c(-c3ccc(F)c(-c4ccc(C(=O)NC)cc4OC)c3)cnnc21` [Example 21, 5′-(7-Ethyl-7H-imidazo[4,5-c]pyridazin-4-yl)-2′-fluoro-2-methoxy-N-methylbiphenyl-4-carboxamide], in test [1], the “α1 PAM (% enhancement of gamma-aminobutyric acid current)” value is given as −29%. Further, the Ki in test [2] came to 6.3 nM. For the same compound, the “α2 PAM (% enhancement of gamma-aminobutyric acid current)” value in test [3] worked out at 33%.

On to `CCn1cnc2c(-c3ccc(F)c(-c4ccc(C(=O)N(C)C)cc4OC)c3)cnnc21` [Example 22, 5′-(7-Ethyl-7H-imidazo[4,5-c]pyridazin-4-yl)-2′-fluoro-2-methoxy-N,N-dimethylbiphenyl-4-carboxamide], for which the “α1 PAM (% enhancement of gamma-aminobutyric acid current)” value in test [1] is reported as −1%. For the same compound, the Ki in test [2] stood at 81.2 nM. Besides, the “α2 PAM (% enhancement of gamma-aminobutyric acid current)” value in test [3] is listed as 23%.

For `CCn1cnc2c(-c3ccc(F)c(-c4cc(C(=O)N(C)C)ccc4OC)c3)cnnc21` [Example 23, 5′-(7-Ethyl-7H-imidazo[4,5-c]pyridazin-4-yl)-2′-fluoro-6-methoxy-N,N-dimethylbiphenyl-3-carboxamide], the Ki in test [2] (setting [4]) is 340 nM.

The record behind these values is patent US9802945B2, “Imidazopyridazine derivatives as modulators of the GABAA receptor activity” (Pfizer Limited, priority 2014, dated 2017).
